Source: patent US20080009418A1, “Selective Inhibitors” (Alchemia LTD., priority 2004, published 2008)

Experiments:
Human δ-opioid (DOP) = molecular target: T1, Human δ-opioid (DOP) (Homo sapiens, UniProt P41143); experiment: Radioligand binding, human δ-opioid (DOP) membranes, FlashPlate, [3H]-Bremazocine; settings: compound at 10 μM; for A1 radioligand binding inhibition: human δ-opioid (DOP) membranes
T1 construct: purchased Perkin Elmer Biosignal
Summary of the method: (§1)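 Cloned human receptor membranes were coated onto FlashPlate wells and incubated with radioligand and compound (added from a 0.5 mM DMSO daughter plate) for 1 hour at room temperature in the dark. Scintillation counting gave percent inhibition, with DMSO defining total and reference ligand defining non-specific binding.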

Human κ-Opioid (KOP) = molecular target: T2, Human κ-Opioid (KOP) (Homo sapiens, UniProt P41145); experiment: Radioligand binding, human κ-opioid (KOP) membranes, filtration, [3H]-Diprenorphine; settings: compound at 10 μM; for A2 radioligand binding inhibition: human κ-opioid (KOP) membranes
T2 construct: purchased Perkin Elmer Biosignal
Summary of the method: (§2)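 Membranes from cloned human receptors were incubated with compound and radioligand for 1 hour at room temperature. Bound ligand was collected on 0.3% PEI-soaked filters, washed with cold 50 mM Tris-HCl pH 7.4, and counted by scintillation. Percent inhibition was computed against DMSO totals and reference-ligand nonspecific wells.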

Human Melanocortin (MC3) = molecular target: T3, Human Melanocortin (MC3) (Homo sapiens, UniProt P41968); experiment: Radioligand binding, human melanocortin MC3 membranes, FlashPlate, [125I]-NDP-αMSH; settings: compound at 10 μM; for A3 radioligand binding inhibition: human melanocortin MC3 membranes
T3 construct: purchased Perkin Elmer Biosignal
Summary of the method: as §1

Human Melanocortin (MC4) = molecular target: T4, Human Melanocortin (MC4) (Homo sapiens, UniProt P32245); experiment: Radioligand binding, human melanocortin MC4 membranes, FlashPlate, [125I]-NDP-αMSH; settings: compound at 10 μM; for A4 radioligand binding inhibition: human melanocortin MC4 membranes
T4 construct: purchased Perkin Elmer Biosignal
Summary of the method: as §1

Human melanocortin (MC5) = molecular target: T5, Human melanocortin (MC5) (Homo sapiens, UniProt P33032); experiment: Radioligand binding, human melanocortin MC5 membranes, FlashPlate, [125I]-NDP-αMSH; settings: compound at 10 μM; for A5 radioligand binding inhibition: human melanocortin MC5 membranes
T5 construct: purchased Perkin Elmer Biosignal
Summary of the method: as §1

[1] = molecular target: T6, Human melanin-concentrating hormone (MCH1) (Homo sapiens, UniProt Q99705); experiment: Radioligand binding, human melanin-concentrating hormone MCH1 membranes, FlashPlate, [125I]-S36057; settings: compound at 10 μM; for A6 radioligand binding inhibition: human MCH1 membranes
T6 construct: purchased Perkin Elmer Biosignal
Summary of the method: as §1

Human μ-opioid (MOP) = molecular target: T7, Human μ-opioid (MOP) (Homo sapiens, UniProt P35372); experiment: Radioligand binding, human μ-opioid (MOP) membranes, FlashPlate, [3H]-Naloxone; settings: compound at 10 μM; for A7 radioligand binding inhibition: human μ-opioid (MOP) membranes
T7 construct: purchased Perkin Elmer Biosignal
Summary of the method: as §1

Human neurokinin (NK1) = molecular target: T8, Human neurokinin (NK1) (Homo sapiens, UniProt P25103); experiment: Radioligand binding, human neurokinin NK1 membranes, filtration, [125I]-Substance P; settings: compound at 10 μM; for A8 radioligand binding inhibition: human neurokinin NK1 membranes
T8 construct: purchased Perkin Elmer Biosignal
Summary of the method: as §2

[2] = molecular target: T9, Human neuropeptide Y (NPY-Y1) (Homo sapiens, UniProt P25929); experiment: Radioligand binding, human neuropeptide Y NPY-Y1 membranes, FlashPlate, [125I]-PYY; settings: compound at 10 μM
T9 construct: purchased Perkin Elmer Biosignal
T9 sequence (P25929 1-384): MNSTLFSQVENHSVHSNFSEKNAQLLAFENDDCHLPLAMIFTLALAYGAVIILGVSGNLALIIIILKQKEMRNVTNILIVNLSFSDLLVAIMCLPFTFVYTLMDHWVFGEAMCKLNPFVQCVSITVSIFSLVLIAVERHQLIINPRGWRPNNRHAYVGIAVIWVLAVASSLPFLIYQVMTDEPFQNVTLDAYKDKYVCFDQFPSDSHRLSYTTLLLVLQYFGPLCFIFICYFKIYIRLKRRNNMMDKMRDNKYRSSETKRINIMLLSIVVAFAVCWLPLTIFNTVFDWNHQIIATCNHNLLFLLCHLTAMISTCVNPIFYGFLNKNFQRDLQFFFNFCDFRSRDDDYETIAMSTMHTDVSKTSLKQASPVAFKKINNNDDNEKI
Summary of the method: as §1

Human opioid (ORL1) = molecular target: T10, Human opioid (ORL1) (Homo sapiens, UniProt P41146); experiment: Radioligand binding, human opioid ORL1 membranes, FlashPlate, [125I]-Nociceptin; settings: compound at 10 μM
T10 construct: purchased Perkin Elmer Biosignal
Summary of the method: as §1

Mouse urotensin (mUR2) = molecular target: T11, Mouse urotensin (mUR2) (Mus musculus, UniProt Q8VIH9); experiment: Radioligand binding, mouse urotensin mUR2 membranes, FlashPlate, [125I]-Urotensin II; settings: compound at 10 μM; for A11 radioligand binding inhibition: mouse urotensin mUR2 membranes
T11 construct: purchased Perkin Elmer Biosignal
T11 sequence (Q8VIH9 1-385): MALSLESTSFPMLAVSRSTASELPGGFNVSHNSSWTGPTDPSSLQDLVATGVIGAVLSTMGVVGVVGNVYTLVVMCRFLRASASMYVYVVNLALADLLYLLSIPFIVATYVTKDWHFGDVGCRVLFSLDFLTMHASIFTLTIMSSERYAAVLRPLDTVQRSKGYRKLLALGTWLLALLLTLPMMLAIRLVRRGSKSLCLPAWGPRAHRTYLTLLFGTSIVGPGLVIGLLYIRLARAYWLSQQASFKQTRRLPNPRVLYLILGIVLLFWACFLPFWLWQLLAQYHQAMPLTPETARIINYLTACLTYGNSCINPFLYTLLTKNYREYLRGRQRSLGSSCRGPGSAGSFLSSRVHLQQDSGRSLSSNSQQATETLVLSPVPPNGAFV
Summary of the method: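 Cloned mouse urotensin (mUR2) receptor membranes from Perkin Elmer Biosignal were immobilized in FlashPlate microplates using a proprietary coating. Each well got 19.5 μl buffer, then 0.5 μl of DMSO, reference ligand, or compound. Adding 5 μl of [125I]-Urotensin II, diluted to 5× final concentration in binding buffer, started binding. Plates were sealed with TopSeal-A and incubated 1 hour at room temperature in the dark. Wells were counted for 30 seconds each on a TopCount after a 60-second delay, and percentage inhibition was calculated.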

T5 sequence (P33032 whole entry): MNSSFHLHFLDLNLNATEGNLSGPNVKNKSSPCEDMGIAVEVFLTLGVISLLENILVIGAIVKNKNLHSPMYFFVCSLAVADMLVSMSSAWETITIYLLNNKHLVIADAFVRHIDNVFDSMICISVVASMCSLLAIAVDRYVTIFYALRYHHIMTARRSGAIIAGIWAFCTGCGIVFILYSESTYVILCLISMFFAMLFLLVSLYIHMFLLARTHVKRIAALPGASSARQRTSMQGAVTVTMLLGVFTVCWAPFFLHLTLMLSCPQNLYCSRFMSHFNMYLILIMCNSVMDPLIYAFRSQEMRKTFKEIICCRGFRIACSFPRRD
T10 sequence (P41146 whole entry): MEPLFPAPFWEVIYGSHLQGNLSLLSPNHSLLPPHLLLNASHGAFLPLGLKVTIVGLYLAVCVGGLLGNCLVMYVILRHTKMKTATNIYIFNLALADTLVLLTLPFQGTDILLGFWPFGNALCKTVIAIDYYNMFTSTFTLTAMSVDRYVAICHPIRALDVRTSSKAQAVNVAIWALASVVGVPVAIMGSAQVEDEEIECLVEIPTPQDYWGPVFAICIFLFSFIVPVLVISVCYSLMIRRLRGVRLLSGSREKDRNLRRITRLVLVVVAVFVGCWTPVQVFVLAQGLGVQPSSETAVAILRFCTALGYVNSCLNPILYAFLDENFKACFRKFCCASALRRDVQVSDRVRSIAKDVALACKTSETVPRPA
T7 sequence (P35372 whole entry): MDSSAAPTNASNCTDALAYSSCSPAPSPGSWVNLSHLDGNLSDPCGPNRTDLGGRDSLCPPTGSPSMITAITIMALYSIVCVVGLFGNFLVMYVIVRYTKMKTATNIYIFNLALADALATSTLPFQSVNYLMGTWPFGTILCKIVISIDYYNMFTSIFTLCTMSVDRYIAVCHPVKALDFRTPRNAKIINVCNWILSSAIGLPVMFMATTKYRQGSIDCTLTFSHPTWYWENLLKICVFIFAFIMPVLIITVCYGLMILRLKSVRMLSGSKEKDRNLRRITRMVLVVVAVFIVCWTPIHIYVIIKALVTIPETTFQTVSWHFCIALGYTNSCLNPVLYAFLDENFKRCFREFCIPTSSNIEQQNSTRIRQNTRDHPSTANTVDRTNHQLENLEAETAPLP
T1 sequence (P41143 whole entry): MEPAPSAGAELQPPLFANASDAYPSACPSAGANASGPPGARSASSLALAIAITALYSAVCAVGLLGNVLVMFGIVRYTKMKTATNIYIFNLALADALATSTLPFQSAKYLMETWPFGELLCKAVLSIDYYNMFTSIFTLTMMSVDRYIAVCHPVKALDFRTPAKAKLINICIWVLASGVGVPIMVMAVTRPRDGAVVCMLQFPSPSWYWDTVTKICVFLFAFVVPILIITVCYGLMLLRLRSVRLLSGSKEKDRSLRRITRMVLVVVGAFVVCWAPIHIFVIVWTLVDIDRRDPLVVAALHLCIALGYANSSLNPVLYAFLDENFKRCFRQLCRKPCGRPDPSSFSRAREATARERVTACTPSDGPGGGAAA
T2 sequence (P41145 whole entry): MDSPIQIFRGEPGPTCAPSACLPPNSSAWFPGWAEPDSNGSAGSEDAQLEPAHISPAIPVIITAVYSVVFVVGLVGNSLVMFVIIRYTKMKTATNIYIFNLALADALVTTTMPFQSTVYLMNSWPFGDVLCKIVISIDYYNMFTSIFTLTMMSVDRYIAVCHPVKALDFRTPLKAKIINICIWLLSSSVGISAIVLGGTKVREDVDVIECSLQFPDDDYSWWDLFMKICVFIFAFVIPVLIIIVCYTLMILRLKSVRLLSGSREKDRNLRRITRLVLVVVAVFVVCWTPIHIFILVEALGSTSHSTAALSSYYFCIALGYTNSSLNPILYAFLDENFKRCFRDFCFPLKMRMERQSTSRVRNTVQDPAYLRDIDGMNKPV
T6 sequence (Q99705 whole entry): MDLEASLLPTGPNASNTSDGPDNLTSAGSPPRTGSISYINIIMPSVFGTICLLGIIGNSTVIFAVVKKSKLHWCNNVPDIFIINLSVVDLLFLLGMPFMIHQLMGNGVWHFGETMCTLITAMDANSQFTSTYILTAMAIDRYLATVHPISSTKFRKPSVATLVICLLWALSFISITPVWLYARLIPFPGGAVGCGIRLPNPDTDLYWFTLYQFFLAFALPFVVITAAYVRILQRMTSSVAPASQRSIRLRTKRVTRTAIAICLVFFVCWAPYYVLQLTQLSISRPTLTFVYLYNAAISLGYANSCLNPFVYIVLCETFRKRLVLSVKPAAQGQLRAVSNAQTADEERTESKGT
T8 sequence (P25103 whole entry): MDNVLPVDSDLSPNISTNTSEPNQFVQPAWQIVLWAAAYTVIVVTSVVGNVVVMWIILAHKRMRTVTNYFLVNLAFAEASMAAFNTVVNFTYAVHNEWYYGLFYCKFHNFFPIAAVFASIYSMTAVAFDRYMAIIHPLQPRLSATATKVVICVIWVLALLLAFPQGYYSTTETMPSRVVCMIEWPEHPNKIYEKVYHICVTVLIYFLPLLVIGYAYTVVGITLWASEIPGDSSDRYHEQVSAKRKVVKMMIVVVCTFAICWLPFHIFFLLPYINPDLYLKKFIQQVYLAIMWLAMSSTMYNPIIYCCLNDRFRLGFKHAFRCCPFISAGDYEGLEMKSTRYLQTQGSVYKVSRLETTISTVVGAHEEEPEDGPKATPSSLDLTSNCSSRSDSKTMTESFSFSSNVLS
T4 sequence (P32245 whole entry): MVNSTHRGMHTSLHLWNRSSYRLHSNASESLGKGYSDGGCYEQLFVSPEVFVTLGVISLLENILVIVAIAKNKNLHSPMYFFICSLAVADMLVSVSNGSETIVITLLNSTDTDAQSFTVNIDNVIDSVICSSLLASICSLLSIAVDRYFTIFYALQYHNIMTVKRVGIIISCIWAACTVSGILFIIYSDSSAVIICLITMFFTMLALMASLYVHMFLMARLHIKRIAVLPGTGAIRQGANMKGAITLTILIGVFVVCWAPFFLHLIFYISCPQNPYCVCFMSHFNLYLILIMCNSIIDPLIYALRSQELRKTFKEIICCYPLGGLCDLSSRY
T3 sequence (P41968 whole entry): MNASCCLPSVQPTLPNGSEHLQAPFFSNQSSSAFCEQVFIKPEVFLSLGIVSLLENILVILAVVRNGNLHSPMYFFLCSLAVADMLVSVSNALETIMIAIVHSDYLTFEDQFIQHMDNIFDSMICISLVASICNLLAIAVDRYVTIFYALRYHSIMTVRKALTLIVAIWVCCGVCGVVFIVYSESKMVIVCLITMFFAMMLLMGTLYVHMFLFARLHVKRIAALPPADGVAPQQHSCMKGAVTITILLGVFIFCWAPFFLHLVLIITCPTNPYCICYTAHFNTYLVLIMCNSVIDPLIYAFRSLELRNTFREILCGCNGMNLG

## CO[C@H]1[C@H](O)[C@@H](COCc2ccc(Cl)cc2)OC(OCc2ccc(-c3ccccc3)cc2)[C@@H]1NC(=O)CCCNC(=N)N (stereo partly shown) [compound 65]
Human δ-opioid (DOP)
  A1 radioligand binding inhibition: − (“−” indicates less than 50% inhibition at 10 μM)
Human κ-Opioid (KOP)
  A2 radioligand binding inhibition: − (“−” indicates less than 50% inhibition at 10 μM)
Human Melanocortin (MC3)
  A3 radioligand binding inhibition: + (“+” indicates greater than 50% inhibition at 10 μM)
Human Melanocortin (MC4)
  A4 radioligand binding inhibition: + (“+” indicates greater than 50% inhibition at 10 μM)
Human melanocortin (MC5)
  A5 radioligand binding inhibition: + (“+” indicates greater than 50% inhibition at 10 μM)
[1]
  A6 radioligand binding inhibition: − (“−” indicates less than 50% inhibition at 10 μM)
Human μ-opioid (MOP)
  A7 radioligand binding inhibition: + (“+” indicates greater than 50% inhibition at 10 μM)
Human neurokinin (NK1)
  A8 radioligand binding inhibition: + (“+” indicates greater than 50% inhibition at 10 μM)
[2]; human NPY-Y1 membranes
  A9 radioligand binding inhibition: − (“−” indicates less than 50% inhibition at 10 μM)
Human opioid (ORL1); human ORL1 membranes
  A10 radioligand binding inhibition: − (“−” indicates less than 50% inhibition at 10 μM)
Mouse urotensin (mUR2)
  A11 radioligand binding inhibition: − (“−” indicates less than 50% inhibition at 10 μM)

## NCCC(=O)N[C@H]1C(OCc2ccc3ccccc3c2)O[C@H](COCc2ccc3ccccc3c2)[C@@H](O)[C@@H]1OCc1ccc(Cl)cc1 (stereo partly shown) [compound 436]
Human δ-opioid (DOP); [3H]-Bremazocine, human DOP membranes
  A1: inhibition of radioligand binding: − (“−” indicates less than 50% inhibition at 10 μM)
Human κ-Opioid (KOP); [3H]-Diprenorphine, human KOP membranes
  A2: inhibition of radioligand binding: − (“−” indicates less than 50% inhibition at 10 μM)
Human Melanocortin (MC3); [125I]-NDP-αMSH, human MC3 membranes
  A3: inhibition of radioligand binding: + (“+” indicates greater than 50% inhibition at 10 μM)
Human Melanocortin (MC4); [125I]-NDP-αMSH, human MC4 membranes
  A4: inhibition of radioligand binding: + (“+” indicates greater than 50% inhibition at 10 μM)
Human melanocortin (MC5); [125I]-NDP-αMSH, human MC5 membranes
  A5: inhibition of radioligand binding: + (“+” indicates greater than 50% inhibition at 10 μM)
[1]; [125I]-S36057, human MCH1 membranes
  A6: inhibition of radioligand binding: + (“+” indicates greater than 50% inhibition at 10 μM)
Human μ-opioid (MOP); [3H]-Naloxone, human MOP membranes
  A7: inhibition of radioligand binding: − (“−” indicates less than 50% inhibition at 10 μM)
Human neurokinin (NK1); [125I]-Substance P, human NK1 membranes
  A8: inhibition of radioligand binding: + (“+” indicates greater than 50% inhibition at 10 μM)
[2]; [125I]-PYY, human NPY-Y1 membranes
  A9: inhibition of radioligand binding: − (“−” indicates less than 50% inhibition at 10 μM)
Human opioid (ORL1); [125I]-Nociceptin, human ORL1 membranes
  A10: inhibition of radioligand binding: − (“−” indicates less than 50% inhibition at 10 μM)
Mouse urotensin (mUR2); [125I]-Urotensin II, mouse mUR2 membranes
  A11: inhibition of radioligand binding: − (“−” indicates less than 50% inhibition at 10 μM)

## COC[C@H]1OC(OCc2ccc(Cl)cc2)[C@H](NC(=O)CCCNC(=N)N)[C@@H](OCc2ccc(Cl)cc2)[C@@H]1O (stereo partly shown) [compound 39]
Human δ-opioid (DOP)
  A1 radioligand binding inhibition: − (“−” indicates less than 50% inhibition at 10 μM)
Human κ-Opioid (KOP)
  A2 radioligand binding inhibition: − (“−” indicates less than 50% inhibition at 10 μM)
Human Melanocortin (MC3)
  A3 radioligand binding inhibition: − (“−” indicates less than 50% inhibition at 10 μM)
Human Melanocortin (MC4)
  A4 radioligand binding inhibition: − (“−” indicates less than 50% inhibition at 10 μM)
Human melanocortin (MC5)
  A5 radioligand binding inhibition: − (“−” indicates less than 50% inhibition at 10 μM)
[1]
  A6 radioligand binding inhibition: + (“+” indicates greater than 50% inhibition at 10 μM)
Human μ-opioid (MOP)
  A7 radioligand binding inhibition: − (“−” indicates less than 50% inhibition at 10 μM)
Human neurokinin (NK1)
  A8 radioligand binding inhibition: + (“+” indicates greater than 50% inhibition at 10 μM)
[2]; human NPY-Y1 membranes
  A9 radioligand binding inhibition: − (“−” indicates less than 50% inhibition at 10 μM)
Human opioid (ORL1); human ORL1 membranes
  A10 radioligand binding inhibition: − (“−” indicates less than 50% inhibition at 10 μM)
Mouse urotensin (mUR2)
  A11 radioligand binding inhibition: − (“−” indicates less than 50% inhibition at 10 μM)

## COCC1OC(OCc2ccccc2)C(NC(=O)CN)C(OCc2ccc3ccccc3c2)C1O (stereo not shown) [compound 188]
Human δ-opioid (DOP); [3H]-Bremazocine, FlashPlate
  A1: inhibition of radioligand binding: − (“−” indicates less than 50% inhibition at 10 μM)
Human κ-Opioid (KOP); [3H]-Diprenorphine, filtration
  A2: inhibition of radioligand binding: − (“−” indicates less than 50% inhibition at 10 μM)
Human Melanocortin (MC3); [125I]-NDP-αMSH, FlashPlate
  A3: inhibition of radioligand binding: − (“−” indicates less than 50% inhibition at 10 μM)
Human Melanocortin (MC4); [125I]-NDP-αMSH, FlashPlate
  A4: inhibition of radioligand binding: − (“−” indicates less than 50% inhibition at 10 μM)
Human melanocortin (MC5); [125I]-NDP-αMSH, FlashPlate
  A5: inhibition of radioligand binding: − (“−” indicates less than 50% inhibition at 10 μM)
[1]; [125I]-S36057, FlashPlate
  A6: inhibition of radioligand binding: − (“−” indicates less than 50% inhibition at 10 μM)
Human μ-opioid (MOP); [3H]-Naloxone, FlashPlate
  A7: inhibition of radioligand binding: − (“−” indicates less than 50% inhibition at 10 μM)
Human neurokinin (NK1); [125I]-Substance P, filtration
  A8: inhibition of radioligand binding: + (“+” indicates greater than 50% inhibition at 10 μM)
[2]; [125I]-PYY, FlashPlate
  A9: inhibition of radioligand binding: − (“−” indicates less than 50% inhibition at 10 μM)
Human opioid (ORL1); [125I]-Nociceptin, FlashPlate
  A10: inhibition of radioligand binding: − (“−” indicates less than 50% inhibition at 10 μM)
Mouse urotensin (mUR2); [125I]-Urotensin II, FlashPlate
  A11: inhibition of radioligand binding: − (“−” indicates less than 50% inhibition at 10 μM)

## CSC1O[C@H](COCc2ccc(Cl)cc2)[C@@H](O)[C@@H](OCc2ccc(-c3ccccc3)cc2)[C@H]1NC(=O)CCCNC(=N)N (stereo partly shown) [compound 292]
Human δ-opioid (DOP); [3H]-Bremazocine
  A1: inhibition of radioligand binding, human δ-opioid (DOP): − (“−” indicates less than 50% inhibition at 10 μM)
Human κ-Opioid (KOP); [3H]-Diprenorphine
  A2: inhibition of radioligand binding, human κ-opioid (KOP): − (“−” indicates less than 50% inhibition at 10 μM)
Human Melanocortin (MC3); [125I]-NDP-αMSH
  A3: inhibition of radioligand binding, human melanocortin (MC3): − (“−” indicates less than 50% inhibition at 10 μM)
Human Melanocortin (MC4); [125I]-NDP-αMSH
  A4: inhibition of radioligand binding, human melanocortin (MC4): − (“−” indicates less than 50% inhibition at 10 μM)
Human melanocortin (MC5); [125I]-NDP-αMSH
  A5: inhibition of radioligand binding, human melanocortin (MC5): + (“+” indicates greater than 50% inhibition at 10 μM)
[1]; [125I]-S36057
  A6: inhibition of radioligand binding, human melanin-concentrating hormone (MCH1): − (“−” indicates less than 50% inhibition at 10 μM)
Human μ-opioid (MOP); [3H]-Naloxone
  A7: inhibition of radioligand binding, human μ-opioid (MOP): − (“−” indicates less than 50% inhibition at 10 μM)
Human neurokinin (NK1); [125I]-Substance P
  A8: inhibition of radioligand binding, human neurokinin (NK1): + (“+” indicates greater than 50% inhibition at 10 μM)
[2]; [125I]-PYY
  A9: inhibition of radioligand binding, human neuropeptide Y (NPY-Y1): − (“−” indicates less than 50% inhibition at 10 μM)
Human opioid (ORL1); [125I]-Nociceptin
  A10: inhibition of radioligand binding, human opioid (ORL1): − (“−” indicates less than 50% inhibition at 10 μM)
Mouse urotensin (mUR2); [125I]-Urotensin II
  A11: inhibition of radioligand binding, mouse urotensin (mUR2): − (“−” indicates less than 50% inhibition at 10 μM)
